Assay results taken from patent US5807535A, “Metal complexes of hydroxyaryl containing aminocarboxylic acid chelating agents” (Australian Nuclear Science & Technology Organisation, priority 1992, dated 1998).
Where two headings read alike, the source gives them in different places.

How the values were obtained:
[1] = Effect of pH on radiolabelling ligand (5) with 64/67Cu; assay type: physicochemical
Method: Radiolabelling with ^64/67 Cu was investigated with ligand (5) over a range of pHs (see Table B). Conditions employed are similar to that reported above for where the ^64/67 Cu in appropriate buffer was added directly to a buffered solution of ligand (5). Rate and percent of complexation was monitored over time by ITLC-SG. Mobile phase employed was methanol:water:ammonia (9:1: trace amounts). The copper complex moves with the solvent front while the free copper is retained at the origin.

[2] = Biodistribution of 99mTc complexes in rats; assay type: in vivo, Australian Albino Wistar Rats; conditions: rat, rats; for tissue uptake at 0.5 min: 30 sec; for tissue uptake at 0.05 h: 3 min
In short: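 Chelators were dissolved in basic saline, brought to about pH 6 with HCl, and reduced with excess stannous chloride before one equivalent volume of sodium 99mTcO4 (10-50 mCi/ml) was added, giving roughly 1 mg/ml chelator. Labelling efficacy was checked by ITLC-SG. Complexes were diluted in saline to 15 μCi/100 μl for rat biodistribution, with tissue uptake expressed as %ID/g.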

[3] = blood, read-out: biodistribution blood
[4] = bone, read-out: biodistribution bone
[5] = brain, read-out: biodistribution brain
[6] = eyes, read-out: biodistribution eyes
[7] = heart, read-out: biodistribution heart
[8] = kidneys, read-out: biodistribution kidneys
[9] = liver, read-out: biodistribution liver
[10] = lungs, read-out: biodistribution lungs
[11] = muscle, read-out: biodistribution muscle
[12] = pancreas, read-out: biodistribution pancreas
[13] = skin, read-out: biodistribution skin
[14] = spleen, read-out: biodistribution spleen
[15] = stomach, read-out: biodistribution stomach
[16] = tail, read-out: biodistribution tail
[17] = thymus, read-out: biodistribution thymus
[18] = thyroid, read-out: biodistribution thyroid
[19] = total git, read-out: biodistribution tot GIT

Nc1ccc(O)c(NC(=O)CN(CCN(CC(=O)O)CC(=O)Nc2cc(N)ccc2O)CC(=O)O)c1 [Compound 5]
rate of complexation ([1]; all pHs (pH 3.0-10.0)): complete within the first minute
complexation maintained for upto ([1]; pH 3.0-10.0): ≤ 2 h
tissue uptake at 0.5 min [2, 3]: 4.92 %ID/g
tissue uptake at 1 min [2, 3]: 4.22 %ID/g
tissue uptake at 0.05 h [2, 3]: 3.26 %ID/g
tissue uptake at 5 min [2, 3]: 3.13 %ID/g
tissue uptake at 10 min [2, 3]: 2.59 %ID/g
tissue uptake at 0.5 min [2, 4]: 0.37 %ID/g
tissue uptake at 1 min [2, 4]: 0.45 %ID/g
tissue uptake at 0.05 h [2, 4]: 0.42 %ID/g
tissue uptake at 5 min [2, 4]: 0.37 %ID/g
tissue uptake at 10 min [2, 4]: 0.36 %ID/g
tissue uptake at 0.5 min [2, 5]: 0.2 %ID/g
tissue uptake at 1 min [2, 5]: 0.22 %ID/g
tissue uptake at 0.05 h [2, 5]: 0.16 %ID/g
tissue uptake at 5 min [2, 5]: 0.17 %ID/g
tissue uptake at 10 min [2, 5]: 0.14 %ID/g
tissue uptake at 0.5 min [2, 6]: 0.17 %ID/g
tissue uptake at 1 min [2, 6]: 0.23 %ID/g
tissue uptake at 0.05 h [2, 6]: 0.19 %ID/g
tissue uptake at 5 min [2, 6]: 0.18 %ID/g
tissue uptake at 10 min [2, 6]: 0.18 %ID/g
tissue uptake at 0.5 min [2, 7]: 1.81 %ID/g
tissue uptake at 1 min [2, 7]: 1.62 %ID/g
tissue uptake at 0.05 h [2, 7]: 1.24 %ID/g
tissue uptake at 5 min [2, 7]: 1.15 %ID/g
tissue uptake at 10 min [2, 7]: 1.06 %ID/g
tissue uptake at 0.5 min [2, 8]: 4.35 %ID/g
tissue uptake at 1 min [2, 8]: 5.7 %ID/g
tissue uptake at 0.05 h [2, 8]: 4.7 %ID/g
tissue uptake at 5 min [2, 8]: 6.04 %ID/g
tissue uptake at 10 min [2, 8]: 3.61 %ID/g
tissue uptake at 0.5 min [2, 9]: 1.11 %ID/g
tissue uptake at 1 min [2, 9]: 0.97 %ID/g
tissue uptake at 0.05 h [2, 9]: 0.83 %ID/g
tissue uptake at 5 min [2, 9]: 0.79 %ID/g
tissue uptake at 10 min [2, 9]: 0.69 %ID/g
tissue uptake at 0.5 min [2, 10]: 1.66 %ID/g
tissue uptake at 1 min [2, 10]: 1.69 %ID/g
tissue uptake at 0.05 h [2, 10]: 1.31 %ID/g
tissue uptake at 5 min [2, 10]: 1.25 %ID/g
tissue uptake at 10 min [2, 10]: 1.17 %ID/g
tissue uptake at 0.5 min [2, 11]: 0.25 %ID/g
tissue uptake at 1 min [2, 11]: 0.3 %ID/g
tissue uptake at 0.05 h [2, 11]: 0.27 %ID/g
tissue uptake at 5 min [2, 11]: 0.25 %ID/g
tissue uptake at 10 min [2, 11]: 0.23 %ID/g
tissue uptake at 0.5 min [2, 12]: 0.8 %ID/g
tissue uptake at 1 min [2, 12]: 0.73 %ID/g
tissue uptake at 0.05 h [2, 12]: 0.55 %ID/g
tissue uptake at 5 min [2, 12]: 0.56 %ID/g
tissue uptake at 10 min [2, 12]: 0.43 %ID/g
tissue uptake at 0.5 min [2, 13]: 0.31 %ID/g
tissue uptake at 1 min [2, 13]: 0.38 %ID/g
tissue uptake at 0.05 h [2, 13]: 0.43 %ID/g
tissue uptake at 5 min [2, 13]: 0.41 %ID/g
tissue uptake at 10 min [2, 13]: 0.46 %ID/g
tissue uptake at 0.5 min [2, 14]: 0.83 %ID/g
tissue uptake at 1 min [2, 14]: 0.98 %ID/g
tissue uptake at 0.05 h [2, 14]: 0.83 %ID/g
tissue uptake at 5 min [2, 14]: 0.83 %ID/g
tissue uptake at 10 min [2, 14]: 0.72 %ID/g
tissue uptake at 0.5 min [2, 15]: 0.47 %ID/g
tissue uptake at 1 min [2, 15]: 0.42 %ID/g
tissue uptake at 0.05 h [2, 15]: 0.36 %ID/g
tissue uptake at 5 min [2, 15]: 0.37 %ID/g
tissue uptake at 10 min [2, 15]: 0.24 %ID/g
tissue uptake at 0.5 min [2, 16]: 0.22 %ID/g
tissue uptake at 1 min [2, 16]: 0.14 %ID/g
tissue uptake at 0.05 h [2, 16]: 0.17 %ID/g
tissue uptake at 5 min [2, 16]: 0.15 %ID/g
tissue uptake at 10 min [2, 16]: 0.19 %ID/g
tissue uptake at 0.5 min [2, 17]: 0.63 %ID/g
tissue uptake at 1 min [2, 17]: 0.56 %ID/g
tissue uptake at 0.05 h [2, 17]: 0.45 %ID/g
tissue uptake at 5 min [2, 17]: 0.54 %ID/g
tissue uptake at 10 min [2, 17]: 0.39 %ID/g
tissue uptake at 0.5 min [2, 18]: 1.85 %ID/g
tissue uptake at 1 min [2, 18]: 2.43 %ID/g
tissue uptake at 0.05 h [2, 18]: 1.59 %ID/g
tissue uptake at 5 min [2, 18]: 1.73 %ID/g
tissue uptake at 10 min [2, 18]: 1.71 %ID/g
tissue uptake at 0.5 min [2, 19]: 0.35 %ID/g
tissue uptake at 1 min [2, 19]: 0.34 %ID/g
tissue uptake at 0.05 h [2, 19]: 0.31 %ID/g
tissue uptake at 5 min [2, 19]: 0.29 %ID/g
tissue uptake at 10 min [2, 19]: 0.27 %ID/g
